Experimental data from PubChem BioAssay (NCI).
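96-well plates; 48 h exposure; 5 concentrations. Endpoints by linear interpolation between flanking doses. Not reached: highest tested concentration assigned. TGI: concentration producing complete growth inhibition.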

What was measured:
Test in all cases: NCI tumour cell line growth inhibition, 48 h
[1] = tested on: SN12K1 renal
[2] = tested on: XF 498 CNS
[3] = tested on: HOP-18 NSCLC
[4] = tested on: SNB-78 CNS
[5] = tested on: DMS 114 small cell lung
[6] = tested on: DLD-1 colon
[7] = tested on: P388 leukemia
[8] = tested on: LXFL 529 NSCLC

For `O=C1OC2CC=CC1C2` (configuration not stated), the TGI [1] was greater than 100 µM, the TGI [2] was greater than 100 µM and the TGI [3] was greater than 100 µM. The TGI [4] was greater than 100 µM, the TGI [5] was greater than 100 µM and the TGI [6] was greater than 100 µM. For the same compound, the TGI [7] was greater than 100 µM.

`C=C1C(=O)OC2CC1CCC1(C)OC1CCC(C)=CCCC2(C)O` (configuration not stated) was tested, and the TGI [1] was 11.9 µM, the TGI [2] was 8.47 µM and the TGI [3] was 3.37 µM. For the same compound, the TGI [4] was 26.3 µM, the TGI [5] was 9.27 µM and the TGI [6] was 6.12 µM. For the same compound, the TGI [7] was 3.06 µM.

`CC(C)(C)OC(=O)NC1CCC(C(C)(C)C)CC1` (configuration not stated) gave a TGI [1] greater than 100 µM, a TGI [2] greater than 96.5 µM and a TGI [3] greater than 100 µM. It also gave a TGI [4] greater than 100 µM, a TGI [5] greater than 100 µM and a TGI [6] greater than 100 µM. The TGI [7] was 48.5 µM.

Work on `O=C(Oc1ccc(Cl)cc1[N+](=O)[O-])c1ccccc1` yielded a TGI [2] greater than 100 µM, a TGI [3] greater than 100 µM and a TGI [4] greater than 100 µM. It also gave a TGI [8] greater than 100 µM, a TGI [5] greater than 100 µM and a TGI [6] greater than 100 µM.
